Experimental data published in PubChem BioAssay AID2060607 (Molecular Pharmacology Branch, DTP, NCI, 2025).

System: 876862-298-R-J1-PDC complex spheroids, viability % test/control
Test: Anticancer human tumor 876862-298-R-J1-PDC patient-derived endometrial carcinoma cell line growth inhibition [CLK]
Conditions: for IC50: curve of first compound; for viability, T/C: stronger effect = lower value
In short: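 Patient-derived tumor cells grown as complex spheroids with HUVEC endothelial cells and mesenchymal stem cells, treated with drug combinations. Concentrations descend in half-log steps from near clinical Cmax, or from 10 microM if Cmax unknown.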

[1] = second compound 0.0316 µM, first compound 0.0316 µM
[2] = second compound 0.0316 µM, first compound 0.1 µM
[3] = second compound 0.0316 µM, first compound 0.316 µM
[4] = second compound 0.0316 µM, first compound 1 µM
[5] = second compound 0.1 µM, first compound 0.0316 µM
[6] = second compound 0.1 µM, first compound 0.1 µM
[7] = second compound 0.1 µM, first compound 0.316 µM
[8] = second compound 0.1 µM, first compound 1 µM
[9] = second compound 0.316 µM, first compound 0.0316 µM
[10] = second compound 0.316 µM, first compound 0.1 µM
[11] = second compound 0.316 µM, first compound 0.316 µM
[12] = second compound 0.316 µM, first compound 1 µM
[13] = second compound 1 µM, first compound 0.0316 µM
[14] = second compound 1 µM, first compound 0.1 µM
[15] = second compound 1 µM, first compound 0.316 µM
[16] = second compound 1 µM, first compound 1 µM
[17] = second compound 3.16 µM, first compound 0.0316 µM
[18] = second compound 3.16 µM, first compound 0.1 µM
[19] = second compound 3.16 µM, first compound 0.316 µM
[20] = second compound 3.16 µM, first compound 1 µM
[21] = second compound 10 µM, first compound 0.0316 µM
[22] = second compound 10 µM, first compound 0.1 µM
[23] = second compound 10 µM, first compound 0.316 µM
[24] = second compound 10 µM, first compound 1 µM
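Further: spheroids exposed to drugs for 7 days before readout.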
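Wherever viability, T/C is given: 100% = DMSO vehicle control wells.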

## NC(=O)C(=Cn1cnc(-c2cc(C(F)(F)F)cc(C(F)(F)F)c2)n1)c1cncnc1 + CNC(=O)c1ccc(Nc2nc(OC3CCCC3)c3c(-c4ccc5nc(C)oc5c4)c[nH]c3n2)c(OC)c1
Second compound 0.0316 µM
  IC50: 19.4 nM
Second compound 0.1 µM
  IC50: < 9.49 nM
Second compound 0.316 µM
  IC50: < 9.49 nM
Second compound 1 µM
  IC50: < 9.49 nM
Second compound 3.16 µM
  IC50: < 9.49 nM
Second compound 10 µM
  IC50: < 9.49 nM
Second compound 0.0316 µM, first compound 0.00949 µM
  viability, T/C: 52.2%
Second compound 0.0316 µM, first compound 0.03 µM
  viability, T/C: 49.7%
Second compound 0.0316 µM, first compound 0.0949 µM
  viability, T/C: 35.9%
Second compound 0.0316 µM, first compound 0.3 µM
  viability, T/C: 25%
Second compound 0.0316 µM, first compound 0.949 µM
  viability, T/C: 9.87%
Second compound 0.0316 µM, first compound 3 µM
  viability, T/C: 8.36%
Second compound 0.1 µM, first compound 0.00949 µM
  viability, T/C: 37.7%
Second compound 0.1 µM, first compound 0.03 µM
  viability, T/C: 34.3%
Second compound 0.1 µM, first compound 0.0949 µM
  viability, T/C: 27.8%
Second compound 0.1 µM, first compound 0.3 µM
  viability, T/C: 19.4%
Second compound 0.1 µM, first compound 0.949 µM
  viability, T/C: 8.19%
Second compound 0.1 µM, first compound 3 µM
  viability, T/C: 5.57%
Second compound 0.316 µM, first compound 0.00949 µM
  viability, T/C: 35.7%
Second compound 0.316 µM, first compound 0.03 µM
  viability, T/C: 24.1%
Second compound 0.316 µM, first compound 0.0949 µM
  viability, T/C: 21.8%
Second compound 0.316 µM, first compound 0.3 µM
  viability, T/C: 14.3%
Second compound 0.316 µM, first compound 0.949 µM
  viability, T/C: 4.08%
Second compound 0.316 µM, first compound 3 µM
  viability, T/C: 1.39%
Second compound 1 µM, first compound 0.00949 µM
  viability, T/C: 24.4%
Second compound 1 µM, first compound 0.03 µM
  viability, T/C: 21.2%
Second compound 1 µM, first compound 0.0949 µM
  viability, T/C: 15.8%
Second compound 1 µM, first compound 0.3 µM
  viability, T/C: 6.44%
Second compound 1 µM, first compound 0.949 µM
  viability, T/C: 2.52%
Second compound 1 µM, first compound 3 µM
  viability, T/C: 1.7%
Second compound 3.16 µM, first compound 0.00949 µM
  viability, T/C: 19.2%
Second compound 3.16 µM, first compound 0.03 µM
  viability, T/C: 13.5%
Second compound 3.16 µM, first compound 0.0949 µM
  viability, T/C: 6.99%
Second compound 3.16 µM, first compound 0.3 µM
  viability, T/C: 2.31%
Second compound 3.16 µM, first compound 0.949 µM
  viability, T/C: 2.53%
Second compound 3.16 µM, first compound 3 µM
  viability, T/C: 1.98%
Second compound 10 µM, first compound 0.00949 µM
  viability, T/C: 17.8%
Second compound 10 µM, first compound 0.03 µM
  viability, T/C: 13.8%
Second compound 10 µM, first compound 0.0949 µM
  viability, T/C: 5.85%
Second compound 10 µM, first compound 0.3 µM
  viability, T/C: 1.75%
Second compound 10 µM, first compound 0.949 µM
  viability, T/C: 1.16%
Second compound 10 µM, first compound 3 µM
  viability, T/C: 0.58%

## COc1c(OCCCN2CCOCC2)ccc2c3n(c(=NC(=O)c4cnc(N)nc4)nc12)CCN3 + CNC(=O)c1ccc(Nc2nc(OC3CCCC3)c3c(-c4ccc5nc(C)oc5c4)c[nH]c3n2)c(OC)c1
Second compound 0.0316 µM
  IC50: 22.8 nM
Second compound 0.1 µM
  IC50: < 3.16 nM
Second compound 0.316 µM
  IC50: < 3.16 nM
Second compound 1 µM
  IC50: < 3.16 nM
Second compound 3.16 µM
  IC50: < 3.16 nM
Second compound 10 µM
  IC50: < 3.16 nM
Second compound 0.0316 µM, first compound 0.00316 µM
  viability, T/C: 63.1%
Second compound 0.0316 µM, first compound 0.01 µM
  viability, T/C: 67.3%
[1]
  viability, T/C: 43.5%
[2]
  viability, T/C: 22.6%
[3]
  viability, T/C: 15.8%
[4]
  viability, T/C: 18%
Second compound 0.1 µM, first compound 0.00316 µM
  viability, T/C: 45.5%
Second compound 0.1 µM, first compound 0.01 µM
  viability, T/C: 35.1%
[5]
  viability, T/C: 25.3%
[6]
  viability, T/C: 16.6%
[7]
  viability, T/C: 16.6%
[8]
  viability, T/C: 18.4%
Second compound 0.316 µM, first compound 0.00316 µM
  viability, T/C: 37.4%
Second compound 0.316 µM, first compound 0.01 µM
  viability, T/C: 32.6%
[9]
  viability, T/C: 22.6%
[10]
  viability, T/C: 18.1%
[11]
  viability, T/C: 13.4%
[12]
  viability, T/C: 14.9%
Second compound 1 µM, first compound 0.00316 µM
  viability, T/C: 29.2%
Second compound 1 µM, first compound 0.01 µM
  viability, T/C: 22.1%
[13]
  viability, T/C: 18.4%
[14]
  viability, T/C: 13.6%
[15]
  viability, T/C: 12%
[16]
  viability, T/C: 12.6%
Second compound 3.16 µM, first compound 0.00316 µM
  viability, T/C: 22.1%
Second compound 3.16 µM, first compound 0.01 µM
  viability, T/C: 17%
[17]
  viability, T/C: 12.5%
[18]
  viability, T/C: 9.46%
[19]
  viability, T/C: 9.04%
[20]
  viability, T/C: 7.24%
Second compound 10 µM, first compound 0.00316 µM
  viability, T/C: 17.3%
Second compound 10 µM, first compound 0.01 µM
  viability, T/C: 16.9%
[21]
  viability, T/C: 13.3%
[22]
  viability, T/C: 9.74%
[23]
  viability, T/C: 6.96%
[24]
  viability, T/C: 6.64%

## CC(Nc1ccc2c(c1)OCCn1cc(N3C(=O)OCC3C(F)F)nc1-2)C(N)=O (stereo unspecified) + CNC(=O)c1ccc(Nc2nc(OC3CCCC3)c3c(-c4ccc5nc(C)oc5c4)c[nH]c3n2)c(OC)c1
Second compound 0.0316 µM
  IC50: 316 nM
Second compound 0.1 µM
  IC50: < 31.6 nM
Second compound 0.316 µM
  IC50: < 31.6 nM
Second compound 1 µM
  IC50: < 31.6 nM
Second compound 3.16 µM
  IC50: < 31.6 nM
Second compound 10 µM
  IC50: < 31.6 nM
[1]
  viability, T/C: 56%
[2]
  viability, T/C: 61.4%
[3]
  viability, T/C: 46.6%
[4]
  viability, T/C: 41%
Second compound 0.0316 µM, first compound 3.16 µM
  viability, T/C: 31.8%
Second compound 0.0316 µM, first compound 10 µM
  viability, T/C: 20.8%
[5]
  viability, T/C: 40.6%
[6]
  viability, T/C: 38.3%
[7]
  viability, T/C: 32.5%
[8]
  viability, T/C: 27%
Second compound 0.1 µM, first compound 3.16 µM
  viability, T/C: 20.9%
Second compound 0.1 µM, first compound 10 µM
  viability, T/C: 16%
[9]
  viability, T/C: 41%
[10]
  viability, T/C: 33.2%
[11]
  viability, T/C: 29.7%
[12]
  viability, T/C: 23.1%
Second compound 0.316 µM, first compound 3.16 µM
  viability, T/C: 20%
Second compound 0.316 µM, first compound 10 µM
  viability, T/C: 17.4%
[13]
  viability, T/C: 31.6%
[14]
  viability, T/C: 25.4%
[15]
  viability, T/C: 22.1%
[16]
  viability, T/C: 20%
Second compound 1 µM, first compound 3.16 µM
  viability, T/C: 17.1%
Second compound 1 µM, first compound 10 µM
  viability, T/C: 14%
[17]
  viability, T/C: 20.1%
[18]
  viability, T/C: 16.7%
[19]
  viability, T/C: 15.1%
[20]
  viability, T/C: 14.8%
Second compound 3.16 µM, first compound 3.16 µM
  viability, T/C: 14%
Second compound 3.16 µM, first compound 10 µM
  viability, T/C: 10.2%
[21]
  viability, T/C: 16.7%
[22]
  viability, T/C: 14.8%
[23]
  viability, T/C: 12.6%
[24]
  viability, T/C: 13%
Second compound 10 µM, first compound 3.16 µM
  viability, T/C: 12%
Second compound 10 µM, first compound 10 µM
  viability, T/C: 9.25%
